Values joined by “and” are separate entries in the source; they are usually repeats but may differ in a detail not shown here. Identical values can stand only once. Like-named read-outs stand apart in the source and are kept apart here.
Biological target: T1, human proteasome (Homo sapiens, UniProt P28072+P28074+Q99436)
T1 construct: The desired homogeneous human proteasome was thus recovered in the fraction at about 340 mM KCl; from tissue
Assay: Activity inhibition of human proteasome by protease inhibitors
Type: biochemical

CCN1C(=O)C=CC1=O [C, N-ethylmaleimide]
Inhibition Rate (%) by Inhibitor: 96% and 99% | inhibition at 10000 µM (read-out: Inhibition Rate (%) by Inhibitor): 88%

Chymostatin [B]
Inhibition Rate (%) by Inhibitor (substrate Cbz-Ala-Arg-Arg-MNA, inhibitor 50 μg/ml, 2 μg proteasome, room temperature, one hour, optimal pH): 19% | Inhibition Rate (%) by Inhibitor (substrate Cbz-Leu-Leu-Glu-NA, inhibitor 50 μg/ml, 2 μg proteasome, room temperature, one hour, optimal pH): 0% | Inhibition Rate (%) by Inhibitor (substrate Suc-Leu-Leu-Val-Tyr-MCA, inhibitor 50 μg/ml, 2 μg proteasome, room temperature, one hour, optimal pH): 75%

— US5425942A, “Polyfunctinal protease” (Otsuka Pharamceutical Co., Ltd., priority 1988, dated 1995)
